In ChEMBL document CHEMBL5543092, “Design, synthesis, and biological characterization of proteolysis targeting chimera (PROTACs) for the ataxia telangiectasia and RAD3-related (ATR) kinase” (Eur J Med Chem, 2024):
Calls of active or inactive are those of the source. No cut-off for these calls is given here.

How the values were obtained:
[1] = Chemical stability of the compound in at pH 7.4 measured at 6 hrs by HPLC based non-enzymatic stability assay; format: physicochemical; settings: buffer, read-out: Stability
[2] = Chemical stability of the compound in at pH 7.4 measured at 12 hrs by HPLC based non-enzymatic stability assay; format: physicochemical; settings: buffer, read-out: Stability
[3] = Chemical stability of the compound in at pH 7.4 measured at 24 hrs by HPLC based non-enzymatic stability assay; format: physicochemical; settings: buffer, read-out: Stability
[4] = Chemical stability of the compound in at pH 7.4 measured at 48 hrs by HPLC based non-enzymatic stability assay; format: physicochemical; settings: buffer, read-out: Stability
[5] = Chemical stability of the compound in at pH 7.4 measured at 72 hrs by HPLC based non-enzymatic stability assay; format: physicochemical; settings: buffer, read-out: Stability
[6] = molecular target: T1, Protein cereblon/Serine/threonine-protein kinase ATR (Homo sapiens) (UniProt Q13535+Q96SW2); assay: PROTAC activity at ATR/CRBN in patient derived human MIA PaCa-2 cells assessed as reduction in protein level at 0.1 to 5 uM measured after 24 hrs by immunoblot analysis relative to untreated control; format: cell-based; settings: dose 0.1-5 µM
[7] = tested on: HEK293; assay: Cytotoxicity against human HEK293 cells assessed as cell viability at 50 uM incubated for 24 hrs by Alamar Blue reagent based assay relative to control; format: functional; settings: read-out: Activity
[8] = molecular target: T1, Protein cereblon/Serine/threonine-protein kinase ATR (Homo sapiens); assay: PROTAC activity at ATR/CRBN in patient derived human MIA PaCa-2 cells assessed as reduction in protein level at 2 uM measured after 24 hrs by immunoblot analysis relative to untreated control; format: cell-based; set-up: scale not given: the % may be the effect or the level left

T1 sequence (Q13535 whole entry, looked up): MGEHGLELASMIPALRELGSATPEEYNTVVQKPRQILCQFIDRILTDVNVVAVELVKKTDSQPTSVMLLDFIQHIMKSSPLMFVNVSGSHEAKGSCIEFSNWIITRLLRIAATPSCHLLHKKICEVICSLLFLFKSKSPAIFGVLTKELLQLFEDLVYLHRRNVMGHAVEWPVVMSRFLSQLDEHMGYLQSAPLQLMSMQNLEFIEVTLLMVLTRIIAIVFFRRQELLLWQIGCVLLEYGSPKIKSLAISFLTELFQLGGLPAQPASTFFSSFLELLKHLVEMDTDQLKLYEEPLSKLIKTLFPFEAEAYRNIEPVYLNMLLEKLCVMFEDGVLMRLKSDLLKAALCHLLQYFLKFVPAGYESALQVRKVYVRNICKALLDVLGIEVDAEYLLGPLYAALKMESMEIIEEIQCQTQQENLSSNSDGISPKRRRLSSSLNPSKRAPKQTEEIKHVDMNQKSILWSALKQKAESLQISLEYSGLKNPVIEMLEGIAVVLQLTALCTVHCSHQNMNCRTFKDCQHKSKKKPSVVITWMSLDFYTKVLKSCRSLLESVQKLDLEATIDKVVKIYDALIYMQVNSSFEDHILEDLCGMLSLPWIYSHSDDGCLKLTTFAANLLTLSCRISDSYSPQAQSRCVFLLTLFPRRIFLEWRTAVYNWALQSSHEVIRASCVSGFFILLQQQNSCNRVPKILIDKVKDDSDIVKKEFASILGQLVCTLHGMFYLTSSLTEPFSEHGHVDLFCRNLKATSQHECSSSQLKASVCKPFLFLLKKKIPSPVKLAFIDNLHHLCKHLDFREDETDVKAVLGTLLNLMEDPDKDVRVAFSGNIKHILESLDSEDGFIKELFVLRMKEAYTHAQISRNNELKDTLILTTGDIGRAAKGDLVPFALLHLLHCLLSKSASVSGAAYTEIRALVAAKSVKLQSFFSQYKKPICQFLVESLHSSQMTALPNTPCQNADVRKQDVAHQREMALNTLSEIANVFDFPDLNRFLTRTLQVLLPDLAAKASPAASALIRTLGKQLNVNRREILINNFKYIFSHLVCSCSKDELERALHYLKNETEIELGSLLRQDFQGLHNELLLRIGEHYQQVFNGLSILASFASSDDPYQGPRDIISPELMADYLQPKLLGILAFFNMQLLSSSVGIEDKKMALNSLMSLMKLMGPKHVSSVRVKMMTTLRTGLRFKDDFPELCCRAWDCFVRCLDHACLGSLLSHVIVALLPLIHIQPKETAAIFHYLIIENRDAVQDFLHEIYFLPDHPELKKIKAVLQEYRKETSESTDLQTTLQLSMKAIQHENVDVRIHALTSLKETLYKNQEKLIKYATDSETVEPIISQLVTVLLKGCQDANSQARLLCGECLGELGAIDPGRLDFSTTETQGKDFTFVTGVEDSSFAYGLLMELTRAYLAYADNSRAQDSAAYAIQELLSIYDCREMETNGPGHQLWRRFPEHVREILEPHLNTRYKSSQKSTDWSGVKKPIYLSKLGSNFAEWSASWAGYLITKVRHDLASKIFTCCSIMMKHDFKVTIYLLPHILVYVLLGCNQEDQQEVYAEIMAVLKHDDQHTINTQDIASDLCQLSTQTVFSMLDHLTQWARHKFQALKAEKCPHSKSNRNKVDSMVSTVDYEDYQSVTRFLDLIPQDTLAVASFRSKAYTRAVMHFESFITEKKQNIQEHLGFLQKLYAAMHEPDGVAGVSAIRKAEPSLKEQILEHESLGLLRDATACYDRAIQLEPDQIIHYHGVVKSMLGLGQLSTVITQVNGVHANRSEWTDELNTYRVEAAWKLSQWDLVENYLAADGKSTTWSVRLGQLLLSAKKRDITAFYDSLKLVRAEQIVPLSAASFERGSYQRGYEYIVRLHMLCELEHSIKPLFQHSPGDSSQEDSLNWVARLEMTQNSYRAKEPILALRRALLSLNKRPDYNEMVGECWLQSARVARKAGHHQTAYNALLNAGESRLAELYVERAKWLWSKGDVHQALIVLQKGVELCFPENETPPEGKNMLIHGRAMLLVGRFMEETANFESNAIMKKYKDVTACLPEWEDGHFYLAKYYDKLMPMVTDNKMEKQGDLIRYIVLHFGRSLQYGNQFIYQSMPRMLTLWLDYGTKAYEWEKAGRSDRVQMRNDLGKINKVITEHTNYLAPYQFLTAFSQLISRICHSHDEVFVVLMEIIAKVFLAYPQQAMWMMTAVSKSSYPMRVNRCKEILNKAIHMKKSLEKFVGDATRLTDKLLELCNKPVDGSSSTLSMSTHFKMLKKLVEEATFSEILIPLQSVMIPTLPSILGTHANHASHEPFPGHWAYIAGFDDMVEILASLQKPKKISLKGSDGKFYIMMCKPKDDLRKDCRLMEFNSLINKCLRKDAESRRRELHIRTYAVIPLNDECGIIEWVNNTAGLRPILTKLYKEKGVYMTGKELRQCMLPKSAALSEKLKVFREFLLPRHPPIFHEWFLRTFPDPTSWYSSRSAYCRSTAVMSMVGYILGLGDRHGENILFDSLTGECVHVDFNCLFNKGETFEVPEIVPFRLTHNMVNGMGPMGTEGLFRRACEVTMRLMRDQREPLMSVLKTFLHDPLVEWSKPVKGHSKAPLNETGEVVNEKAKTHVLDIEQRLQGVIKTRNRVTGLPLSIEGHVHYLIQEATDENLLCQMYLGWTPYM
T1 sequence (Q96SW2 whole entry, looked up): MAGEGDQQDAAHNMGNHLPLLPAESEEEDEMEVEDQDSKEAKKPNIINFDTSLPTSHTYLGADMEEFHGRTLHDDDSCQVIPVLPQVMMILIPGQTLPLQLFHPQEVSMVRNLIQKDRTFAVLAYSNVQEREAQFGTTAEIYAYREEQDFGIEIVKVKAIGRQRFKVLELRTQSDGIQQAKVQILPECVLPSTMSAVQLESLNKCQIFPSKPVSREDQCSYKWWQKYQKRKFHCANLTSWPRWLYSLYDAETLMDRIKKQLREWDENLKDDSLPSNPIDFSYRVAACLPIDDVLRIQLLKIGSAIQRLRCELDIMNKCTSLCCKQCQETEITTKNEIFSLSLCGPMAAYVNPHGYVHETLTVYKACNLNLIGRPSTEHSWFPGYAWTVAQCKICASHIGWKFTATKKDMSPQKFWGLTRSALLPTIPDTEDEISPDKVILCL

Structure (SMILES) | remaining at 6 h [1] [%] | remaining at 12 h [2] [%] | remaining at 24 h [3] [%] | remaining at 48 h [4] [%] | remaining at 72 h [5] [%] | Activity [6] | viability at 50 µM [7] [%] | Activity [8]
Nc1ncc(-c2ccc(S(=O)(=O)NCCCCCC(=O)N3CCN(c4ccc5c(c4)C(=O)N(C4CCC(=O)NC4=O)C5=O)CC3)cc2)nc1-c1nnc(-c2ccccc2)o1 (stereo not drawn) | 96 | 92 | 90 | 80 | 73 | inactive | 85.6 | –
Nc1ncc(-c2ccc(S(=O)(=O)NCCCCC(=O)NCCOc3ccc(C4CCC(=O)NC4=O)cc3)cc2)nc1C(=O)Nc1ccccc1 (stereo not drawn) | 101 | 101 | 101 | 99 | 99 | inactive | 66.4 | –
CNCc1ccc(-c2nnc(-c3nc(-c4ccc(S(=O)(=O)NCCCCC(=O)NCCCC#Cc5cccc6c5CN(C5CCC(=O)NC5=O)C6=O)cc4)cnc3N)o2)cc1 (stereo not drawn) | 101 | 101 | 102 | 100 | 100 | – | 107 | 40%
CNCc1ccc(-c2nnc(-c3nc(-c4ccc(S(=O)(=O)NCCCCCCC(=O)N5CCN(c6ccc7c(c6)C(=O)N(C6CCC(=O)NC6=O)C7=O)CC5)cc4)cnc3N)o2)cc1 (stereo not drawn) | 97 | 95 | 91 | 79 | 72 | – | 95.7 | –
Nc1ncc(-c2ccc(S(=O)(=O)NCCCCCCC(=O)N3CCN(c4ccc5c(c4)C(=O)N(C4CCC(=O)NC4=O)C5=O)CC3)cc2)nc1C(=O)Nc1ccccc1 (stereo not drawn) | 97 | 92 | 88 | 78 | 70 | – | 93.2 | –
Nc1ncc(-c2ccc(S(=O)(=O)NCCCCCCCC(=O)N3CCN(c4ccc5c(c4)C(=O)N(C4CCC(=O)NC4=O)C5=O)CC3)cc2)nc1C(=O)Nc1ccccc1 (stereo not drawn) | 98 | 105 | 108 | 94 | 84 | – | 90.5 | inactive
Nc1ncc(-c2ccc(S(=O)(=O)NCCCCCCC(=O)NCCOc3ccc(C4CCC(=O)NC4=O)cc3)cc2)nc1C(=O)Nc1ccccc1 (stereo not drawn) | 101 | 103 | 102 | 102 | 101 | inactive | 95.7 | –
Cc1ncsc1-c1ccc(CNC(=O)[C@@H]2C[C@@H](O)CN2C(=O)[C@@H](NC(=O)CCCCNS(=O)(=O)c2ccc(-c3cnc(N)c(-c4nnc(-c5ccccc5)o4)n3)cc2)C(C)(C)C)cc1 | 100 | 100 | 102 | 103 | 104 | – | 91.1 | –
CNCc1ccc(-c2nnc(-c3nc(-c4ccc(S(=O)(=O)NCCCCCC(=O)NCC#Cc5cccc6c5CN(C5CCC(=O)NC5=O)C6=O)cc4)cnc3N)o2)cc1 (stereo not drawn) | 101 | 101 | 101 | 100 | 100 | – | 102 | > 20%
Nc1ncc(-c2ccc(S(=O)(=O)NCCCCCC(=O)NCC#Cc3cccc4c3CN(C3CCC(=O)NC3=O)C4=O)cc2)nc1C(=O)Nc1ccccc1 (stereo not drawn) | 101 | 103 | 104 | 105 | 109 | – | 86.4 | Active
Nc1ncc(-c2ccc(S(=O)(=O)NCCCCC(=O)NCC#Cc3cccc4c3CN(C3CCC(=O)NC3=O)C4=O)cc2)nc1-c1nnc(-c2ccccc2)o1 (stereo not drawn) | 104 | 105 | 105 | 103 | 107 | – | 95.5 | inactive
CNCc1ccc(-c2nnc(-c3nc(-c4ccc(S(=O)(=O)NCCCCCCC(=O)NCCCC#Cc5cccc6c5CN(C5CCC(=O)NC5=O)C6=O)cc4)cnc3N)o2)cc1 (stereo not drawn) | 101 | 101 | 101 | 95 | 93 | – | 91.8 | > 20%
Cc1ncsc1-c1ccc(CNC(=O)[C@@H]2C[C@@H](O)CN2C(=O)[C@@H](NC(=O)CCCCCNS(=O)(=O)c2ccc(-c3cnc(N)c(-c4nnc(-c5ccccc5)o4)n3)cc2)C(C)(C)C)cc1 | 100 | 100 | 102 | 103 | 104 | – | 79.8 | –
CNCc1ccc(-c2nnc(-c3nc(-c4ccc(S(=O)(=O)NCCCCCCC(=O)NCC#Cc5cccc6c5CN(C5CCC(=O)NC5=O)C6=O)cc4)cnc3N)o2)cc1 (stereo not drawn) | 101 | 101 | 101 | 100 | 101 | – | 89.5 | > 20%
Nc1ncc(-c2ccc(S(=O)(=O)NCCCCC(=O)N3CCN(c4ccc5c(c4)C(=O)N(C4CCC(=O)NC4=O)C5=O)CC3)cc2)nc1C(=O)Nc1ccccc1 (stereo not drawn) | 97 | 94 | 90 | 82 | 74 | – | 102 | inactive
CNCc1ccc(-c2nnc(-c3nc(-c4ccc(S(=O)(=O)NCCCCCC(=O)N[C@H](C(=O)N5C[C@H](O)C[C@H]5C(=O)NCc5ccc(-c6scnc6C)cc5)C(C)(C)C)cc4)cnc3N)o2)cc1 | 101 | 100 | 101 | 99 | 99 | – | 81.8 | –
CNCc1ccc(-c2nnc(-c3nc(-c4ccc(S(=O)(=O)NCCCCCC(=O)N5CCN(c6ccc7c(c6)C(=O)N(C6CCC(=O)NC6=O)C7=O)CC5)cc4)cnc3N)o2)cc1 (stereo not drawn) | 98 | 95 | 92 | 81 | 71 | inactive | 105 | –
CN1C(=O)CCC(N2Cc3c(C#CCCCNC(=O)CCCCCNS(=O)(=O)c4ccc(-c5cnc(N)c(C(=O)Nc6ccccc6)n5)cc4)cccc3C2=O)C1=O (stereo not drawn) | 100 | 100 | 99 | 98 | 97 | – | 83.5 | inactive
CNCc1ccc(-c2nnc(-c3nc(-c4ccc(S(=O)(=O)NCCCCC(=O)N5CCN(c6ccc7c(c6)C(=O)N(C6CCC(=O)NC6=O)C7=O)CC5)cc4)cnc3N)o2)cc1 (stereo not drawn) | 97 | 99 | 91 | 83 | 74 | – | 104 | –
Nc1ncc(-c2ccc(S(=O)(=O)NCCCCC(=O)NCCCC#Cc3cccc4c3CN(C3CCC(=O)NC3=O)C4=O)cc2)nc1C(=O)Nc1ccccc1 (stereo not drawn) | 102 | 102 | 102 | 103 | 103 | – | 104 | –
Nc1ncc(-c2ccc(S(=O)(=O)NCCCCCCCC(=O)NCC#Cc3cccc4c3CN(C3CCC(=O)NC3=O)C4=O)cc2)nc1C(=O)Nc1ccccc1 (stereo not drawn) | 100 | 100 | 98 | 77 | 47 | – | 94.2 | –
Nc1ncc(-c2ccc(S(=O)(=O)NCCOCCOCCC(=O)N3CCN(c4ccc5c(c4)C(=O)N(C4CCC(=O)NC4=O)C5=O)CC3)cc2)nc1C(=O)Nc1ccccc1 (stereo not drawn) | 100 | 95 | 80 | 21 | 6 | – | 79.9 | inactive
Nc1ncc(-c2ccc(S(=O)(=O)NCCOCCOCCOCCC(=O)N3CCN(c4ccc5c(c4)C(=O)N(C4CCC(=O)NC4=O)C5=O)CC3)cc2)nc1C(=O)Nc1ccccc1 (stereo not drawn) | 101 | 100 | 97 | 83 | 74 | – | 75 | inactive
Nc1ncc(-c2ccc(S(=O)(=O)NCCCCC(=O)N3CCN(c4ccc5c(c4)C(=O)N(C4CCC(=O)NC4=O)C5=O)CC3)cc2)nc1-c1nnc(-c2ccccc2)o1 (stereo not drawn) | 99 | 95 | 91 | 85 | 77 | – | 97.6 | –
CNCc1ccc(-c2nnc(-c3nc(-c4ccc(S(=O)(=O)NCCCCCC(=O)NCCCC#Cc5cccc6c5CN(C5CCC(=O)NC5=O)C6=O)cc4)cnc3N)o2)cc1 (stereo not drawn) | 104 | 103 | 103 | 103 | 102 | – | 101 | inactive
Nc1ncc(-c2ccc(S(=O)(=O)NCCCCCC(=O)NCC#Cc3cccc4c3CN(C3CCC(=O)NC3=O)C4=O)cc2)nc1-c1nnc(-c2ccccc2)o1 (stereo not drawn) | 108 | 105 | 105 | 106 | 106 | – | 70.5 | 40%
